According to patent publication US20230167094A1, “H4 ANTAGONIST COMPOUNDS” (Heptares Therapeutics Limited, priority 2020, published 2023):

Columns and labels:
human H4 receptor = target: T1, human H4 receptor (Homo sapiens, UniProt Q9H3N8); experiment: H4 Antagonist Functional Dynamic Mass Redistribution Assay; assay type: cell-based; conditions: HEKf cells expressing human H4 receptor; antagonist mode vs histamine EC80; pKb by Cheng-Prusoff; read-out: Human H4 DMR fpKb (converted)
T1 construct: expressed in transfected cells; host or cells: HEKf cells infected with baculovirus
T1 sequence (Q9H3N8 whole entry): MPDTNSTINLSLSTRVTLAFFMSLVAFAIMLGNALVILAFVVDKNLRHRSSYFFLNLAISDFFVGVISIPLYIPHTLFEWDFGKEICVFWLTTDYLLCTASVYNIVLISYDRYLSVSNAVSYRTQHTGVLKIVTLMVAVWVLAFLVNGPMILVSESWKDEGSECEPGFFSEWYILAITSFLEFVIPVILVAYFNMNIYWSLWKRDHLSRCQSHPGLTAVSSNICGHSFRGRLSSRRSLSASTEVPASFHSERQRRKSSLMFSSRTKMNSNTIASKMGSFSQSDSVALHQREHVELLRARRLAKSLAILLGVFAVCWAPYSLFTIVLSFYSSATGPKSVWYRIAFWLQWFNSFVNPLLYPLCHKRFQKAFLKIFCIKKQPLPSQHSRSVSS
Protocol: H4 Antagonist Functional Dynamic Mass Redistribution Assay
HEKf cells were infected using baculovirus expressing the human H4 receptor, plated into fibronectin-coated EPIC plates at a density of 10,000 cells/well and incubated overnight at 37° C. The medium on cells was changed to […] HBSS with 20 mM HEPES per well and 30 nL DMSO were added per well by LabCyte ECHO acoustic dispensing. Following 2 h equilibration at room temperature, 30 nL of H4 ligands prepared in DMSO were stamped by LabCyte ECHO acoustic dispensing into seeded EPIC plates and cellular dynamic mass redistribution was monitored using a Corning EPIC plate reader. Following 45 min measurement, 30 nL/well of histamine EC80 was added and monitored to obtain antagonist assay data. Maximum baseline-corrected responses in pm were used to generate concentration response curves. EC50 values were generated using a 4-parameter logistical fit equation to quantify agonist potencies. Functional antagonist affinity values were generated using the Cheng-Prusoff equation to calculate a pKb value using the antagonist assay data.

hERG = hERG (Homo sapiens, UniProt Q12809); experiment: hERG assay (QPatch automated patch clamp, CHO cells); assay type: cell-based; conditions: CHO cells stably expressing hERG; 1, 3, 10 and 30 μM; tail current; room temperature; read-out: hERG pIC50 (converted)
hERG, sequence (Q12809 whole entry): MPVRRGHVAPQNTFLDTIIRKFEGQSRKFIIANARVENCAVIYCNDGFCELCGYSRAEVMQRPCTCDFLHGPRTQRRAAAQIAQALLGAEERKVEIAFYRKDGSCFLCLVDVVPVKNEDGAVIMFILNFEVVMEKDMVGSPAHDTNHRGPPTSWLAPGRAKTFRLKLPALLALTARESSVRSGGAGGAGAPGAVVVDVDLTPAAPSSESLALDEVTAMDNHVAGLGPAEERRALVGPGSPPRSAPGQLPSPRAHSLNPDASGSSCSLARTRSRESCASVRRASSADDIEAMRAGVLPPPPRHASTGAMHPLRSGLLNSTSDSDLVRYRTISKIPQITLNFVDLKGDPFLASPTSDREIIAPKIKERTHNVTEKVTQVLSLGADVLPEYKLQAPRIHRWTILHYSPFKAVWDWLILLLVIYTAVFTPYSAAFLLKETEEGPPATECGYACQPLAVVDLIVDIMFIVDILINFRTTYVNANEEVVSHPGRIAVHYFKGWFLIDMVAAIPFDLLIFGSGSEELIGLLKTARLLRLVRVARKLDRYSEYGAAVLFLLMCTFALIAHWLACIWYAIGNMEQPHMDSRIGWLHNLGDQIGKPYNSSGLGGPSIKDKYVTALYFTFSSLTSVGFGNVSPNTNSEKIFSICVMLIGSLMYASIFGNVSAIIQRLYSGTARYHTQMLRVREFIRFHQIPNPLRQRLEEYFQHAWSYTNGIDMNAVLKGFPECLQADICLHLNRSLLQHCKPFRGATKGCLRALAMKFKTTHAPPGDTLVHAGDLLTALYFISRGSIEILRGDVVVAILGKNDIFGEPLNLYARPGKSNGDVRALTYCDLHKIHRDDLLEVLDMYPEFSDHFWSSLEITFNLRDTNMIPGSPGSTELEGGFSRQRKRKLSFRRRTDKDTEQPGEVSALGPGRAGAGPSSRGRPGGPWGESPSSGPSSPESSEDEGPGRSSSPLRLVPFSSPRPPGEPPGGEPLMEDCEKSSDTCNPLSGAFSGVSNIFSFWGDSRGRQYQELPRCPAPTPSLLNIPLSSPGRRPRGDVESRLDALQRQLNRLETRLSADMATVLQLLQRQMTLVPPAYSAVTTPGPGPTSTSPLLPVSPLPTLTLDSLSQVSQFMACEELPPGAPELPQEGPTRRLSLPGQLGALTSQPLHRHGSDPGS
Protocol: All experiments were performed on the QPatch automated patch clamp platform.
Series resistance (4-15 MΩ) was compensated by >80%.

Structure (SMILES) | Kb (human H4 receptor) | IC50 (hERG)
CNC1CN(c2cc(-c3cn(C)nc3Cl)nc(N)n2)C1 [Example 29, 4-(3-Chloro-1-methyl-1H-pyrazol-4-yl)-6-(3-(methylamino)azetidin-1-yl)pyrimidin-2-amine] | 1.58 nM | > 100000 nM
CNC1CN(c2cc(-c3cnn(C(F)F)c3C)nc(N)n2)C1 [Example 16, 4-(1-(Difluoromethyl)-5-methyl-1H-pyrazol-4-yl)-6-(3-(methylamino)azetidin-1-yl)pyrimidin-2-amine] | 2 nM | > 100000 nM
CN[C@@H]1CCN(c2cc(NCC3CC3)nc(N)n2)C1 [PF-3893787, reference compound] | 0.794 nM | 7940 nM
